Legend:
[1] = test system: Trypsin; experiment: Dose response assay for protease inhibitors: trypsin; assay type: biochemical; details: selectivity, trypsin over Factor XIa
In short: (§1)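 Glp-Pro-Arg-AMC substrate (thrombin, trypsin) or Pro-Phe-Arg-AMC/Boc-Leu-Gly-Arg-AMC (Factor Xa), diluted to 100 μM, in 20 mM Hepes pH 7.4, 150 mM NaCl, 0.02% Tween 20; enzyme diluted to 0.5 nM before addition. Two-fold serial compound dilutions; kinetic reads at 30° C. Data yield IC50 and Kon.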

[2] = Metabolic stability in dog hepatocytes; assay type: in vitro ADME; details: pooled cryopreserved hepatocytes; beagle dog hepatocytes, 2 μM compound; read-out: Dog Hepatocyte Stability (t1/2)
In short: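 Pooled cryopreserved beagle hepatocytes at 500,000 cells/mL in Krebs-Henseleit buffer with 2 μM compound, 37 °C, 5% CO2, sampled out to 180 min. Acetonitrile-quenched samples analysed by LC-MS/MS; percent remaining from peak area versus time zero.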

[3] = Aqueous solubility in PBS by HPLC-UV/VIS; assay type: physicochemical; details: phosphate buffered saline, aqueous buffer, kinetic from dmso stock; PBS pH 7.4, 2% DMSO, 24 h at room temperature
In short: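 Compound diluted to 200 μM in PBS pH 7.4 from DMSO stock (2% DMSO final), incubated 24 h at room temperature, then centrifuged. Supernatant analysed by HPLC-UV/VIS; solubility (μM) from principal-peak area versus a 200 μM calibration standard. Range approximately 0.5–200 μM.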

[4] = target: Thrombin (Homo sapiens (Human), UniProt P00734); experiment: Dose response assay for protease inhibitors: thrombin; assay type: biochemical; details: selectivity, thrombin over Factor XIa
In short: as §1

[5] = target: Factor Xa (Homo sapiens (Human), UniProt P00742); experiment: Dose response assay for protease inhibitors: Factor Xa; assay type: biochemical; details: selectivity, Factor Xa over Factor XIa
Sequence of Factor Xa (P00742 235-488): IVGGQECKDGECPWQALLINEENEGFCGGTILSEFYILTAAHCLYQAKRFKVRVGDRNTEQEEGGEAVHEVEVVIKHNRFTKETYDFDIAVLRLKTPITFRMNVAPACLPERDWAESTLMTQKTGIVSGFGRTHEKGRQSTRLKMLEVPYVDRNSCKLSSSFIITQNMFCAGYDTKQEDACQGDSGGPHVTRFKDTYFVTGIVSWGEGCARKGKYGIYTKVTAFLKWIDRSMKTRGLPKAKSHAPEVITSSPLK
Sequence of Factor Xa (P00742 41-179 partner): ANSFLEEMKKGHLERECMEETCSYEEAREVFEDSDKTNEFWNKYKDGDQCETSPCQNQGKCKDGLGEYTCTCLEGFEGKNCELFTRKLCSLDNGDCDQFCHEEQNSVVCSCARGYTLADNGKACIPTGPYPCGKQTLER
In short: as §1

half-life at 2 μM [2] | solubility at 24 h [3] | Ratio: Thrombin/FXIa [4] | Ratio: FXa/FXIa [5] | SMILES | Ratio: Trypsin/FXIa [1]
2.02 to 4 h | > 100 µM | H (“H” indicates 101-1000) | I (“I” indicates > 500) | CC[C@@H](NC(=O)N1C(=O)[C@H](Cc2ccnc(N)c2)[C@H]1C(=O)N(C)c1nccn1C)c1ccc(C)nc1 [Compound 1-81, (2S,3R)-3-((2-aminopyridin-4-yl)methyl)-N2-(1-methyl-1H-imidazol-2-yl)-N1-((R)-1-(6-methylpyridin-3-yl)propyl)-N2-methyl-4-oxoazetidine-1,2-dicarboxamide] | G (“G” indicates 1-100)
2.02 to 4 h | > 100 µM | H (“H” indicates 101-1000) | I (“I” indicates > 500) | CC[C@@H](NC(=O)N1C(=O)[C@H](Cc2ccnc(N)c2)[C@H]1C(=O)N(C)c1nccn1C)c1ccccc1Cl [Compound 1-83] | G (“G” indicates 1-100)
> 4 h | > 100 µM | G (“G” indicates 1-100) | H (“H” indicates 101-1000) | CC[C@@H](NC(=O)N1C(=O)[C@H](Cc2ccnc(N)c2)[C@H]1C(=O)N(C)c1cnn(C)c1)c1ccccc1 [Compound 1-88, (2S,3R)-3-((2-aminopyridin-4-yl)methyl)-N2-(1-methyl-1H-pyrazol-4-yl)-N1-((R)-1-phenylpropyl)-N2-methyl-4-oxoazetidine-1,2-dicarboxamide] | G (“G” indicates 1-100)
> 4 h | > 100 µM | H (“H” indicates 101-1000) | I (“I” indicates > 500) | CC[C@@H](NC(=O)N1C(=O)[C@H](Cc2cc(C)nc(N)c2)[C@H]1C(=O)N(C)c1ccn(C)n1)c1cccc(Cl)c1 [Compound 1-89, (2S,3R)-3-((2-amino-6-methylpyridin-4-yl)methyl)-N2-(1-methyl-1H-pyrazol-3-yl)-N1-((R)-1-(3-chlorophenyl)propyl)-N2-methyl-4-oxoazetidine-1,2-dicarboxamide] | G (“G” indicates 1-100)
2.02 to 4 h | > 100 µM | H (“H” indicates 101-1000) | I (“I” indicates > 500) | CC[C@@H](NC(=O)N1C(=O)[C@H](Cc2ccnc(N)c2)[C@H]1C(=O)N(C)c1cn(C)cn1)c1ccccc1 [Compound 1-90, (2S,3R)-3-((2-aminopyridin-4-yl)methyl)-N2-(1-methyl-1H-imidazol-4-yl)-N1-((R)-1-phenylpropyl)-N2-methyl-4-oxoazetidine-1,2-dicarboxamide] | G (“G” indicates 1-100)
1.02 to 2 h | > 100 µM | H (“H” indicates 101-1000) | H (“H” indicates 101-1000) | CC[C@@H](NC(=O)N1C(=O)[C@H](Cc2ccnc(N)c2)[C@H]1C(=O)N(C)c1ccn(C)n1)c1cccc(Cl)c1 [Compound 1-91, (2S,3R)-3-((2-aminopyridin-4-yl)methyl)-N2-(1-methyl-1H-pyrazol-3-yl)-N1-((R)-1-(3-chlorophenyl)propyl)-N2-methyl-4-oxoazetidine-1,2-dicarboxamide] | G (“G” indicates 1-100)
2.02 to 4 h | > 100 µM | H (“H” indicates 101-1000) | I (“I” indicates > 500) | CC[C@@H](NC(=O)N1C(=O)[C@H](Cc2ccnc(N)c2)[C@H]1C(=O)N(C)c1ccnn1C)c1ccccc1 [Compound 1-92, (2S,3R)-3-((2-aminopyridin-4-yl)methyl)-N2-(1-methyl 1H-pyrazol-5-yl)-N1-((R)-1-phenylpropyl)-N2-methyl-4-oxoazetidine-1,2-dicarboxamide] | G (“G” indicates 1-100)
> 4 h | > 100 µM | H (“H” indicates 101-1000) | I (“I” indicates > 500) | CC[C@@H](NC(=O)N1C(=O)[C@H](Cc2cc(C)nc(N)c2)[C@H]1C(=O)N(C)c1nccn1C)c1cc(F)ccc1F [Compound 1-137, (2S,3R)-3-((2-amino-6-methylpyridin-4-yl)methyl)-N2-(1-methyl-1H-imidazol-2-yl)-N1-((R)-1-(2,5-difluorophenyl)propyl)-N2-methyl-4-oxoazetidine-1,2-dicarboxamide] | G (“G” indicates 1-100)
1.02 to 2 h | > 100 µM | I (“I” indicates > 500) | I (“I” indicates > 500) | CC[C@@H](NC(=O)N1C(=O)[C@H](Cc2cc(C)nc(N)c2)[C@H]1C(=O)N(C)c1ccnn1C)c1ccc(C)c(C)c1 [Compound 1-152, (2S,3R)-3-((2-amino-6-methylpyridin-4-yl)methyl)-N2-(1-methyl-1H-pyrazol-5-yl)-N1-((R)-1-(3,4-dimethylphenyl)propyl)-N2-methyl-4-oxoazetidine-1,2-dicarboxamide] | G (“G” indicates 1-100)
2.02 to 4 h | > 100 µM | I (“I” indicates > 500) | I (“I” indicates > 500) | CC[C@@H](NC(=O)N1C(=O)[C@H](Cc2cc(C)nc(N)c2)[C@H]1C(=O)N(C)c1ccnn1C)c1ccc(C)c(F)c1 [Compound 1-155, (2S,3R)-3-((2-amino-6-methylpyridin-4-yl)methyl)-N2-(1-methyl-1H-pyrazol-5-yl)-N1-((R)-1-(3-fluoro-4-methylphenyl)propyl)-N2-methyl-4-oxoazetidine-1,2-dicarboxamide] | G (“G” indicates 1-100)
2.02 to 4 h | > 100 µM | I (“I” indicates > 500) | I (“I” indicates > 500) | CC[C@@H](NC(=O)N1C(=O)[C@H](Cc2cc(C)nc(N)c2)[C@H]1C(=O)N(C)c1ccnn1C)c1ccc(F)c(F)c1 [Compound 1-158, (2S,3R)-3-((2-amino-6-methylpyridin-4-yl)methyl)-N2-(1-methyl-1H-pyrazol-5-yl)-N1-((R)-1-(3,4-difluorophenyl)propyl)-N2-methyl-4-oxoazetidine-1,2-dicarboxamide] | G (“G” indicates 1-100)
